Test system: Wistar rats
Assay: Laxative test in rats
Type: in vivo, rat
Conditions: for laxative activity: 50 mg/kg b.wt, in words
Description: Animals Wistar rats (180-200 g) of either sex were used for the study. The animals were housed in standard laboratory conditions and provided with a temperature of 22±3° C., relative humidity of 50-55% and a 12-hour light/dark cycle. Drinking water and a synthetic pelleted diet (Lipton India Ltd., Mumbal) were supplied ad libitum. The Ethical Committee of the institution approved the experimental protocol. All the animals received humane care according to the criteria outlined in the “Guide for the care and use of Laboratory Animals” prepared by the National Academy of Sciences and published by The National Institute of Heath. Laxative Test in Rats Twenty-four animals of either sex were randomly divided into 4 groups of 6 rats each. Food was withdrawn 12 hrs. before the experiment. […] The animals were then housed individually in cages lined with blotting paper and observed for 24 hrs. The total number of wet fecal produced from each group was noted [Akah P A, Oli […](4):327]. The laxative property of the one of the selected extract KP-4 was further tested to determine the laxative property in relation to the dosage administered in rats. For the purpose the rats were grouped in four groups. Group I received saline and served as control. […] The animals were then housed individually in cages lined with blotting paper and observed for 24 hrs. The total number of wet fecal produced from each group was noted.

SMILES	No of Animals Responded (50 mg/Kg, compounds from KP-1B)	No. of faeces (50 mg/Kg, compounds from KP-1B)	On set of Action (50 mg/Kg, compounds from KP-1B) [min]	Percentage of Action (50 mg/Kg, compounds from KP-1B)	laxative activity (listed as C8, 50 mg/kg)	laxative activity (listed as ferulic acid, 50 mg/kg)
COc1cc(/C=C/C(=O)O)ccc1O [Compound C-8, Ferulic acid]	10/10	7.80 ± 0.80	179.00 ± 22.66	100	significant laxative action	promising activity
COc1cc(C(=O)O)ccc1O [Compound C-9, Vanillic acid]	Nil	–	–	Nil	–	–

Reference: patent publication US6641851B2, “Herbal laxative preparation” (The Himalaya Drug Company, priority 2001, dated 2003)
